One compound from patent US6894061B2, “Substituted dihydrophenanthridinesulfonamides” (Wyeth, priority 2002, dated 2005) can be followed below.

One data set has as its system ER/NF-κB. Briefly: ER/NF-κB luciferase reporter in Ad5-wt-ERα infected HAECT-1 cells. Type of data set: cell-based, human. The following applies: Homo sapiens, HAECT1, IL-1β. (Reporter assays use an easily measured gene product as a stand-in for the process of interest.)
In another data set the test system is IL-6. Briefly: IL-6 test procedure (IL-6 ELISA of media) in Ad5-wt-ERα infected HAECT-1 cells. The format is cell-based, human. The following applies: Homo sapiens, HAECT1, IL-1β, read-out: Interleukin-6 Efficacy (%). As for the experimental part:
After four hours, cells were washed with EBM-BSA and incubated overnight in the same medium. Following overnight incubation, cells were washed with EBM-BSA and infected for 2 hours with 6 mL of a 1:10 dilution of Ad5-3x(NFκB).Luc virus (Adenovirus luciferase expression vector driven by 3 repeats of the MHC NFκb site 5′ to the thymidine kinase promoter) in EBM-BSA. After two hours, cells were washed and incubated at 34° C. for 1 hour. […] Control (no ER infection) cells were processed as above without Ad5-wt-hERα virus infection.
ERα infected HAECT-1 cells or control cells were thawed, diluted 42× in warm EBM-BSA, plated into 96-well plates at 0.1 mL/well and incubated for 4 hours at 34° C. Test compounds were added to the cells as 2× stocks in EBM-BSA containing 2 ng/mL IL-1β (R&D Systems) and the 96-well plates were returned to the incubator (34° C.). After 15-20 hours, 100 μL aliquots of media were removed from the cells and assayed for IL-6 content using a BioSource human IL-6 ELISA Kit. Cells were subsequently washed with 300 μL of Dulbecco's phosphate buffered saline and lysed in 50 μL of Cell Culture Lysis Reagent (Promega). Luciferase was determined on a Wallac Victor^2 Luminometer (Gaithersburg, Md.) using 10 μL of lysate and mixing with 100 μL of Promega Luciferase Assay reagent. Creatine kinase was determined from the rate of increase in A340 following addition of 100 μL of CK assay reagent (Sigma, cat. No 47-10) to the remainder of the cell lysate.
For IC50 and EC50 calculations, mean IL-6, luciferase or CK values versus log10 of the compound concentration were fitted to a four parameter logistic equation. The IC50/EC50 value, ‘Hill slope’, upper and lower limits of the curve were iteratively estimated.
(An ELISA detects its analyte on a solid surface through an enzyme-linked reagent.)

For a further data set, the system named is creatine kinase. Briefly: Creatine kinase (CK) test procedure in Ad5-wt-ERα infected HAECT-1 cells. The format is cell-based, human. Particulars: Homo sapiens, HAECT1; @10 μM; Ad5-wt-ERα infected HAECT-1 cells; read-out: Creatin Kinase Efficacy (%).

Regarding `C[C@@H]1c2cc(F)ccc2-c2ccccc2N1S(=O)(=O)c1ccc(O)cc1` [Example 34, 4-{[(R)-8-Fluoro-6-methylphenanthridin-5(6H)-yl]sulfonyl}phenol], the melting point (as a rule, the temperature, or range, at which the solid turns liquid) turned out to be 193 °C. Also, the Emax in the data set with ER/NF-κB (read-out: ER/NFκB Efficacy (%)*) amounted to 89%. In addition, the IC50 in the data set on ER/NF-κB (read-out: ER/NFκB IC50) stood at 2840 nM. Also, the Emax with IL-6 was determined as 35%. Besides, the Emax at 10 µM in the data set with creatine kinase was less than 35%.
